Assay results from ChEMBL document CHEMBL5154710, “Discovery of small molecules interacting at lactate dehydrogenases tetrameric interface using a biophysical screening cascade” (Eur J Med Chem, 2022).

Assays:
Homo sapiens [1] = organism: Homo sapiens; assay: Destabilization of human LDH-5 expressed in Escherichia coli assessed as change in melting temperature at 1 mM heated for 3 mins by NanoDSF assay
[2] = Destabilization of Red-dye-NHS fluorescent-labeled human LDH-1 expressed in Escherichia coli assessed as dissociation constant by MST assay
Homo sapiens [3] = organism: Homo sapiens; assay: Stabilization of human LDH-Htr expressed in Escherichia coli assessed as change in melting temperature at 1 mM heated for 3 mins by NanoDSF assay
[4] = Destabilization of Red-dye-NHS fluorescent-labeled human LDH-5 expressed in Escherichia coli assessed as dissociation constant by MST assay
Homo sapiens [5] = organism: Homo sapiens; assay: Destabilization of human LDH-1expressed in Escherichia coli assessed as change in melting temperature at 1 mM heated for 3 mins by NanoDSF assay
[6] = Stabilization of Red-dye-NHS fluorescent-labeled human LDH-Htr expressed in Escherichia coli assessed as dissociation constant by MST assay
[7] = Inhibition of LDH-5 (unknown origin) assessed as denaturation of LDH-5 using NADH and pyruvate as substrate by spectrophotometric analysis; parameters: species or system Homo sapiens
Homo sapiens [8] = organism: Homo sapiens; assay: Displacement of macro-cycle 7 from human LDH-Htr expressed in Escherichia coli assessed as decay in saturation transfer at 100 uM by saturation transfer difference-1H NMR analysis

Row | Compound | ΔTm (Homo sapiens [1]) [°C] | Kd [2] [µM] | ΔTm (Homo sapiens [3]) [°C] | Kd [4] [µM] | ΔTm (Homo sapiens [5]) [°C] | Kd [6] [µM] | IC50 [7] [µM] | Activity (Homo sapiens [8]) [%]
1 | Nc1nc2ccccc2n1Cc1ccc(F)cc1 | -2.6 | 48 | 0.8 | 324 | 0.4 | 183 | – | –
2 | CNCCCC12CCC(c3ccccc31)c1ccccc12 | -2.7 | – | 4.6 | – | -1.4 | – | – | –
3 | O=C(O)c1cc(-c2ccc(F)cc2F)ccc1O [DIFLUNISAL] | -2.1 | 116 | 3.1 | 343 | 0.1 | 1000 | – | –
4 | O=C(O)c1ccccc1Nc1cccc(C(F)(F)F)c1 [FLUFENAMIC ACID] | -1.7 | 1700 | 1.9 | – | 0.4 | 900 | – | –
5 | Cc1ccc(/C(=C\CN2CCCC2)c2ccccn2)cc1 [TRIPROLIDINE] | – | – | – | – | – | – | 7600 | 40
